Data on 54 compounds can be found in ChEMBL document CHEMBL1137773, “Novel lead structures for p38 MAP kinase via FieldScreen virtual screening” (J Med Chem, 2009).

Test [1] in a line: Inhibition of p38 MAPK at 10 uM by ELISA. (In an ELISA, binding on a coated surface is turned into a signal by an enzyme label.)
Test [2] is described as follows: Inhibition of p38 MAPK by ELISA.

Consider `CCc1cc2c(SCC(=O)Nc3ccc(Br)cc3)ncnc2s1`, for which, in test [1], the inhibition turned out to be 14%. Consider `COc1ccc(-c2nnc3sc(COc4ccc(F)cc4)nn23)cc1`, for which the inhibition in test [1] turned out to be 31%.

`Brc1ccccc1-c1nnc2sc(COc3ccccc3)nn12` came in with an inhibition in test [1] of 80%. Further, half-maximal inhibition in test [2] (IC50) was put at 1240 nM. `Cc1ccc(CNC(=O)CN(c2cccc(Cl)c2)S(C)(=O)=O)cc1`: the inhibition in test [1] was found to be 1%. The same measure, in the same setting: next, `Cc1sc(NC(=O)c2ccc(Cl)cc2)c(C(=O)c2ccccc2)c1C`: 31%; `FC(F)(F)c1nnc2sc(COc3ccccc3)nn12`: 16%; `Cc1ccc(NC(=O)Nc2c(Cl)cccc2Cl)c2c1CC(C)(C)O2`: 66%.

`Cc1occc1-c1nnc2sc(COc3ccc(F)cc3)nn12` showed an inhibition in test [1] of 21%. Still for that read-out and setting: next, `Cc1ccccc1Cc1nnc2sc(COc3ccccc3)nn12`: 33%.

As for `Cc1ccccc1OCc1nn2c(-c3ccccc3Cl)nnc2s1`, in test [1], the inhibition came to 65%. For the same compound, half-maximal inhibition in test [2] (IC50) required 3510 nM. The like results for `COc1ccc(Cc2nn3c(-c4ccccc4Cl)nnc3s2)cc1` were, in that order, 83% and 440 nM. On the same counts, the results for `CC(C)(C)c1nnc2sc(COc3ccccc3)nn12` are 61% and 3980 nM.

On to `NC(=O)C(c1ccc(Cl)cc1)c1ccc(C(=O)c2ccccc2)cc1` (stereo unspecified), for which, in test [1], the inhibition was found to be 26%. Turning to `Cc1sc2ncnc(SCC(=O)c3ccc(F)cc3)c2c1C`, the inhibition in test [1] was determined as 24%. Same read-out and setting: in the case of `O=C(Nc1ccc(F)cc1)c1cccc(S(=O)(=O)Nc2ccccc2)c1` it was 15%. With `Cc1ccccc1Cc1nnc2sc(COc3ccc(F)cc3)nn12`, the inhibition in test [1] came to 36%. The same measure, in the same setting: in the case of `CCC(O)Cc1nc(N)c(C#N)c(-c2ccccc2OC)c1C` (stereo unspecified) it was 20%.

In test [1], `COc1ccccc1Cc1nnc2sc(COc3ccc(F)cc3)nn12` had an inhibition of 79%. In test [2], this compound displayed an IC50 of 650 nM. Take `CCc1ccc(OCC(=O)Nc2cccc3nc(C)ccc23)cc1`: the inhibition in test [1] was determined as 4%. With `Cn1nc(CC(=O)Nc2ccc(Br)cc2)c2ccccc2c1=O`, the inhibition in test [1] worked out at 15%.

On to `CC(C)(C)c1ccc(OCc2nn3c(Cc4ccccc4)nnc3s2)cc1`, for which, in test [1], the inhibition was determined as 12%. Still for that read-out and setting: in the case of `COc1ccc(OCc2nn3c(-c4ccc(Cl)cc4Cl)nnc3s2)cc1` it was 31%.

As to `Clc1ccc(-c2nnc3sc(CCc4ccccc4)nn23)c(Cl)c1`, in test [1], the inhibition is 45%.

The compound `CC(C)Oc1ccc(OCCSc2nc(=O)c3ccccc3[nH]2)cc1` gave an inhibition in test [1] of 23%. As for `COc1ccc(OCc2nn3c(-c4ccccc4Cl)nnc3s2)cc1`, the inhibition in test [1] came to 64%. The compound also came in with an IC50 in test [2] of 3880 nM. On the same counts, the results for `Cc1cccc(OCc2nn3c(-c4ccccc4Cl)nnc3s2)c1` are 76% and 1980 nM. Take `Cc1onc(-c2c(Cl)cccc2Cl)c1C(=O)N1CCCCC1C` (stereo unspecified): the inhibition in test [1] came to 14%. The same measure, in the same setting: in the case of `CCn1c(SCc2ccccc2Cl)nc2ccccc2c1=O` it was 28%. The compound `Clc1ccccc1-c1nnc2sc(CCc3ccccc3)nn12` displayed an inhibition in test [1] of 72%. Half-maximal inhibition in test [2] (IC50) was put at 2550 nM. Turning to `C=CCNc1sc(C(=O)c2ccc(F)cc2)c(N)c1C#N`, the inhibition in test [1] came out at 46%.

For the compound `c1ccc(OCc2nn3c(-c4ccccc4)nnc3s2)cc1`, in test [1], the inhibition is 39%. Compound `Clc1ccccc1-c1nnc2sc(COc3ccccc3)nn12` returned an inhibition in test [1] of 76%. The same compound had an IC50 in test [2] of 790 nM. Take `CC1Cc2nc(SCC(N)=O)n(-c3ccc(F)cc3)c(=O)c2S1` (stereo unspecified): the inhibition in test [1] is 4%. On the same count and under the same terms, in the case of `O=C(c1cn(Cc2ccccc2F)c2ccccc12)C1CC1` it was 23%. Still for that read-out and setting: next, `COc1cccc(OCc2nn3c(-c4ccccc4)nnc3s2)c1`: 11%. As to `CCSc1ccccc1C(=O)N1CCc2ccccc21`, the inhibition in test [1] turned out to be 4%. Same read-out and setting: next, `CCC(Oc1ccccc1)c1nn2c(-c3ccoc3C)nnc2s1` (stereo unspecified): 31%; `Oc1ccc2ccccc2c1C1NN=C(c2ccccc2)S1` (stereo unspecified): 21%. Same read-out and setting: next, `COc1ccccc1NC1CC(=O)N(c2ccc(Cl)cc2)C1=O` (stereo unspecified): 20%; `Cc1nn(Cc2ccccc2)c2c1C(c1ccc(Br)cc1)C(C#N)=C(N)O2` (stereo unspecified): 40%. Take `Fc1ccccc1-c1nnc2sc(COc3ccccc3)nn12`: in test [1], the inhibition was 73%. In addition, the IC50 in test [2] is 3080 nM. `Cc1nnc2sc(COc3ccccc3)nn12` yielded an inhibition in test [1] of 18%.

For `Fc1ccc(-c2nnc3sc(CCc4ccccc4)nn23)cc1`, in test [1], the inhibition came to 32%. The same measure, in the same setting: in the case of `Cc1occc1-c1nnc2sc(C(C)Oc3ccccc3)nn12` (stereo unspecified) it was 30%. Take `CC(C)(C)c1nnc2sc(COc3ccc(F)cc3)nn12`: the inhibition in test [1] amounted to 53%. In addition, in test [2], 4710 nM corresponded to half-maximal inhibition (IC50). In test [1], `Cc1cc(-c2nnc3sc(COc4ccc(F)cc4)nn23)n(C)n1` gave an inhibition of 22%. On to `c1ccc(CCc2nn3c(-c4ccncc4)nnc3s2)cc1`, for which the inhibition in test [1] stood at 26%. In test [1], `COc1ccccc1Cc1nnc2sc(COc3ccccc3)nn12` came in with an inhibition of 77%. The compound also showed an IC50 in test [2] of 740 nM. The compound `Fc1ccc(OCc2nn3c(Cc4ccccc4)nnc3s2)cc1` gave an inhibition in test [1] of 32%. Same read-out and setting: next, `CCOC(=O)C(C)Sc1nc2c(c(=O)n1-c1ccc(F)cc1)SCC2` (stereo unspecified): 23%; `Clc1cccc(-c2nnc3sc(COc4ccccc4)nn23)c1`: 3%. In the case of `COc1ccc(OCc2nnc3sc(-c4ccccc4Cl)nn23)cc1`, in test [1], the inhibition was found to be 34%. Same read-out and setting: in the case of `CC(C)(Oc1ccccc1)c1nn2c(-c3ccoc3)nnc2s1` it was 24%; in that of `Cc1cccc(CC(=O)N(c2ccc(Br)cc2)C2C=CS(=O)(=O)C2)c1` (stereo unspecified), 2%.

By inhibition is commonly meant the relative decrease from the control value, in per cent. Low values mean a weak effect, high ones a strong effect. As usually defined, the IC50 is the concentration needed to halve the response being measured. The low end stands for greater potency in that assay, the high end for weaker potency in that assay.
